Patent US12258338B2, “Modulators of the integrated stress response pathway” (EVOTEC INTERNATIONAL GMBH, priority 2019, dated 2025)
Converted amounts (≈) assume the structure as drawn. Like-named read-outs stand apart in the source and are kept apart here.

How the values were obtained:
[1] = tested on: ATF4; assay: HEK-ATF4 High Content Imaging assay (prevention of Tunicamycin induced ISR; ATF4 signal ratio between nucleus and cytoplasm); assay type: cell-based
Summary of the method: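 Wild-type HEK293 cells in 0.3% FBS medium were co-treated with compounds and Tunicamycin (3.3 μM in prediluted medium, 11-fold over final) for 6 h at 37 °C. Fixed cells were immunostained for ATF4 with Hoechst nuclei; imaging gave nuclear/cytoplasmic ATF4 ratio, with nuclei counts as toxicity control.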

[2] = Thermodynamic (Equilibrium) solubility in selected buffer; assay type: physicochemical; settings: for solubility: aqueous buffer, thermodynamic from solid
Summary of the method: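 Powdered compound at 1 mg/mL target in 50 mM phosphate pH 2.0, 50 mM acetate pH 5.5 or 50 mM phosphate pH 7.4, stirred overnight at r.t. in the dark, then 0.45 μm filtered. Filtrate quantified by UPLC-UV peak area against a 0.8 mg/mL DMSO reference.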

[3] = biological target: T1, human ERG potassium channel (hERG) (Homo sapiens, UniProt Q12809); assay: hERG channel tail current recording using in vitro Rapid ICE (automated patch-clamp, QPatch HTX); assay type: cell-based
T1 construct: expressed in transfected cells; host or cells: HEK293, stably transfected, tetracycline-inducible promoter
T1 sequence (Q12809 whole entry): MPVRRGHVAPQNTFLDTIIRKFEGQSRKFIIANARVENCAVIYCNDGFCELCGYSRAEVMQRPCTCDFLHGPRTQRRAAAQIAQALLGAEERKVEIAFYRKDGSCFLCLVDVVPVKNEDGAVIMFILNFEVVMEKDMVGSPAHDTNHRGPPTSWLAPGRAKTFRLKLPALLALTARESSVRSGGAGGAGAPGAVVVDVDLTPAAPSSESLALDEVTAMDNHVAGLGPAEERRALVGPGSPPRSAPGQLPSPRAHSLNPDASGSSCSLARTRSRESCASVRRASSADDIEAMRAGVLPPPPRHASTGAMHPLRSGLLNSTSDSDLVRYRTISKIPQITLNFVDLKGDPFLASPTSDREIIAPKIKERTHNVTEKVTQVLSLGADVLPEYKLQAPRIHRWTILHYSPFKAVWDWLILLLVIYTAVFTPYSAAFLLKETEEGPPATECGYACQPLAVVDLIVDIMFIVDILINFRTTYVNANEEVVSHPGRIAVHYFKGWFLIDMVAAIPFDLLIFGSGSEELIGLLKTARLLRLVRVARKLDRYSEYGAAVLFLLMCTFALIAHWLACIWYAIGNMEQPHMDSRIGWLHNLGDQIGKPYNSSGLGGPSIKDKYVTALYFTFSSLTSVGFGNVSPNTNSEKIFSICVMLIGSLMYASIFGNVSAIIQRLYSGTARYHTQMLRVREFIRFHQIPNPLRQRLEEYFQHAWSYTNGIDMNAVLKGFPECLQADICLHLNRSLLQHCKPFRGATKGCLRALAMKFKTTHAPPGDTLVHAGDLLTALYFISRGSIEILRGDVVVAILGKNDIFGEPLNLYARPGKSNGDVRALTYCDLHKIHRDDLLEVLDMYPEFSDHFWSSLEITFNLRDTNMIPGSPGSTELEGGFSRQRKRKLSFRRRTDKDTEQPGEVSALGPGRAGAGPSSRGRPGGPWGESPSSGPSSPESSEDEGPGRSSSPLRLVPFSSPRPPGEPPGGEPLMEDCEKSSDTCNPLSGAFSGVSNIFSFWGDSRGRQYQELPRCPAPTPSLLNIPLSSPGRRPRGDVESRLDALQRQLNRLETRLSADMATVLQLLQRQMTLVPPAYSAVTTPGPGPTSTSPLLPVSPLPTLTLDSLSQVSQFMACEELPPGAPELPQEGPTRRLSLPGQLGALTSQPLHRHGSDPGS
Summary of the method: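 Automated patch clamp on tetracycline-induced HEK293 hERG cells; pulse −80 to −50 mV 200 ms, +20 mV 4.8 s, −50 mV 5 s tail, extracellular pH 7.4. Compound at 0.3, 3, 30 μM (0.3% DMSO), 5 min exposure; tail current versus vehicle gives % inhibition and estimated IC50.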

[4] = Log D 7.4 assay (1-octanol / phosphate buffer pH 7.4); assay type: physicochemical
Experimental: Phosphate buffer (1 M) was diluted to 20 mM with deionised water and adjusted to pH 7.4 (±0.05) with phosphoric acid or sodium hydroxide. A 1:1 mixture of phosphate buffer (20 mM) and 1-octanol were saturated by tumbling overnight after which time the two phases were separated. Using an automated liquid handler the following procedure was carried out: 20 mM DMSO stocks of assay and control compounds were reformatted to provide cassettes of 4 compounds per well giving a final concentration of 5 mM per compound. In duplicate 5 μL of the cassetted compounds were added to 495 μL 1-octanol (saturated with buffer) followed by 495 μL of buffer (saturated with 1-octanol) in a 96-well plate giving final incubation concentrations of 25 μM (50 μM max concentration in either layer if all compound partitioned into a single matrix). The layers were mixed by aspirating and dispensing the buffer and octanol layers into one another three times. The plate was sealed, shaken for 120 minutes and then centrifuged at 25° C. for 15 min at 4600 rpm. The 1-octanol and buffer layer were sampled separately (ensuring no cross contamination) and the respective samples diluted with 60:40 ACN:0.1 M ammonium acetate pH 7.4 (containing external standard; Sulfisoxazole, assay concentration 120 nM) to obtain final theoretical maximum concentrations of the 1-octanol layer of 0.025 μM, 0.5 μM and a buffer layer concentration of 0.5 μM. The second buffer sample was prepared by diluting the assay buffer layer with acetonitrile (containing external standard; Sulfisoxazole, assay concentration 120 nM) to give a theoretical maximum concentration of 20 μM. The analytical samples were analysed by LC-MS/MS and the Log D calculated as shown:
[formula] Where PA=Peak area and ES=External standard

[5] = Homo sapiens, Wild-type HEK293 cells, Tunicamycin induced ISR, 6 h, read-out: IIEK-ATF4 Activity
[6] = acetate buffer 50 mM, pH 5.5, Table 25, read-out: Solubility (μg/mL) pH 5.5
[7] = phosphate buffer 50 mM, pH 2.0, Table 25, read-out: Solubility (μg/mL) pH 2.0
[8] = phosphate buffer 50 mM, pH 7.4, Table 25, read-out: Solubility (μg/mL) pH 7.4
[9] = Table 24 category key, read-out: HEK-ATF4 Activity*
[10] = acetate buffer 50 mM, pH 5, Table 24, read-out: Solubility (μg/mL) pH 5
[11] = phosphate buffer 50 mM, pH 2, Table 24, read-out: Solubility (μg/mL) pH 2
[12] = phosphate buffer 50 mM, pH 7.4, Table 24, read-out: Solubility (μg/mL) pH 7.4

Row | IC50 [1, 5] | solubility [2, 6] | solubility [2, 7] | solubility [2, 8] | IC50 [1, 9] | solubility [2, 10] | solubility [2, 11] | solubility [2, 12] | logD at 120 min [4] | Solubility (μg/mL) pH 2.0 ([2]; pH 2.0, Table 25) | SMILES | IC50 ([3]; Table 26) | IC50 ([3]; Table 24)
1 | 1 to 500 nM | 98 µg/mL (≈ 203 µM) | 810 µg/mL (≈ 1680 µM) | 76 µg/mL (≈ 157 µM) | – | – | – | – | – | – | O=C(COc1ccc(Cl)c(F)c1)N[C@H]1CC[C@H](c2nnc(OCCOC(F)(F)F)o2)NC1 [Example 77, 2-(4-chloro-3-fluorophenoxy)-N-[(3S,6R)-6-{5-[2-(trifluoromethoxy)ethoxy]-1,3,4-oxadiazol-2-yl}piperidin-3-yl]acetamide] | 1000 to 5000 nM | –
2 | – | – | – | – | 500 to 2000 nM | 3 µg/mL (≈ 6.61 µM) | 3 µg/mL (≈ 6.61 µM) | 3 µg/mL (≈ 6.61 µM) | 2.9 | – | O=C(COc1ccc(Cl)c(F)c1)N[C@@H]1CC[C@@H](c2nnc(COC(F)(F)F)o2)OC1 [WO201904 6779 Ex 30, reference compound] | – | 1 to 1000 nM
3 | 1 to 500 nM | 61 µg/mL (≈ 124 µM) | – | 17 µg/mL (≈ 34.5 µM) | – | – | – | – | – | quant.^# | O=C(COc1ccc(Cl)c(F)c1)N[C@H]1CC[C@H](c2noc([C@H]3C[C@@H](OC(F)(F)F)C3)n2)NC1 [Example 98, 2-(4-chloro-3-fluorophenoxy)-N-[(3S,6R)-6-{5-[(1s,3s)-3-(trifluoromethoxy)cyclobutyl]-1,2,4-oxadiazol-3-yl}piperidin-3-yl]acetamide] | 1000 to 5000 nM | –
4 | 1 to 500 nM | 97 µg/mL (≈ 195 µM) | 812 µg/mL (≈ 1630 µM) | 67 µg/mL (≈ 134 µM) | – | – | – | – | – | – | O=C(COc1ccc(C(F)(F)F)cc1)N[C@H]1CC[C@H](c2nnc(OCCOC(F)(F)F)o2)NC1 [Example 112, N-[(3S,6R)-6-{5-[2-(trifluoromethoxy)ethoxy]-1,3,4-oxadiazol-2-yl}piperidin-3-yl]-2-[4-(trifluoromethyl)phenoxy]acetamide] | > 5000 nM | –
5 | 500 to 2000 nM | 294 µg/mL (≈ 615 µM) | – | 173 µg/mL (≈ 362 µM) | – | – | – | – | – | quant.^# | O=C(COc1ccc(Cl)c(F)c1)N[C@H]1CC[C@H](c2nnc(N3CC(C(F)(F)F)C3)o2)NC1 [Example 90, 2-(4-chloro-3-fluorophenoxy)-N-[(3S,6R)-6-{5-[3-(trifluoromethyl)azetidin-1-yl]-1,3,4-oxadiazol-2-yl}piperidin-3-yl]acetamide] | > 5000 nM | –
6 | 1 to 500 nM | 47 µg/mL (≈ 95.7 µM) | 886 µg/mL (≈ 1800 µM) | 91 µg/mL (≈ 185 µM) | – | – | – | – | – | – | O=C(COc1ccc(Cl)c(Cl)c1)N[C@H]1CC[C@H](c2nnc([C@H]3C[C@@H](OC(F)F)C3)o2)NC1 [Example 60, 2-(3,4-dichlorophenoxy)-N-[(3S,6R)-6-(5-[(1s,3s)-3-(difluoromethoxy)cyclobutyl]-1,3,4-oxadiazol-2-yl}piperidin-3-yl]acetamide] | 1 to 1000 nM | –
7 | 1 to 500 nM | 378 µg/mL (≈ 811 µM) | 970 µg/mL (≈ 2080 µM) | 230 µg/mL (≈ 494 µM) | – | – | – | – | – | – | O=C(COc1ccc(Cl)c(F)c1)N[C@H]1CC[C@H](c2nnc(N3CC(OC4CC4)C3)o2)NC1 [Example 95, 2-(4-chloro-3-fluorophenoxy)-N-[(3S,6R)-6-[5-(3-cyclopropoxyazetidin-1-yl)-1,3,4-oxadiazol-2-yl]piperidin-3-yl]acetamide] | 1000 to 5000 nM | –
8 | 1 to 500 nM | 113 µg/mL (≈ 236 µM) | 651 µg/mL (≈ 1360 µM) | 105 µg/mL (≈ 219 µM) | – | – | – | – | – | – | Cc1cc(OCC(=O)N[C@H]2CC[C@H](c3nnc(OCCOC(F)(F)F)o3)NC2)ccc1Cl [Example 12, 2-(4-chloro-3-methylphenoxy)-N-[(3S,6R)-6-{5-[2-(trifluoromethoxy)ethoxy]-1,3,4-oxadiazol-2-yl}piperidin-3-yl]acetamide] | > 5000 nM | –
9 | – | – | – | – | 1 to 500 nM | < 1 µg/mL | < 1 µg/mL | < 1 µg/mL | 3.6 | – | O=C(COc1ccc(Cl)c(F)c1)N[C@@H]1CC[C@@H](c2nnc([C@H]3C[C@@H](OC(F)(F)F)C3)o2)OC1 [WO201904 6779 Ex 1, reference compound] | – | 1000 to 5000 nM
10 | 1 to 500 nM | 256 µg/mL (≈ 504 µM) | 982 µg/mL (≈ 1930 µM) | 132 µg/mL (≈ 260 µM) | – | – | – | – | – | – | O=C(COc1ccc(Cl)c(F)c1)N[C@H]1CC[C@H](c2nnc(N3CC[C@H](OC(F)(F)F)C3)o2)NC1 (single isomer, unassigned) [Example 110] | > 5000 nM | –
11 | 1 to 500 nM | 60 µg/mL (≈ 117 µM) | 617 µg/mL (≈ 1200 µM) | 42 µg/mL (≈ 81.6 µM) | – | – | – | – | – | – | O=C(COc1ccc(Cl)c(C(F)F)c1)N[C@H]1CC[C@H](c2nnc(OCCOC(F)(F)F)o2)NC1 [Example 11, 2-[4-chloro-3-(difluoromethyl)phenoxy]-N-[(3S,6R)-6-{5-[2-(trifluoromethoxy)ethoxy]-1,3,4-oxadiazol-2-yl}piperidin-3-yl]acetamide] | > 5000 nM | –
12 | 1 to 500 nM | 318 µg/mL (≈ 694 µM) | 661 µg/mL (≈ 1440 µM) | 240 µg/mL (≈ 524 µM) | – | – | – | – | – | – | Cc1ccc(OCC(=O)N[C@H]2CC[C@H](c3nnc(OCCOC(F)(F)F)o3)NC2)cc1C [Example 13, 2-(3,4-dimethylphenoxy)-N-[(3S,6R)-6-{5-[2-(trifluoromethoxy)ethoxy]-1,3,4-oxadiazol-2-yl}piperidin-3-yl]acetamide] | > 5000 nM | –
13 | 1 to 500 nM | 9 µg/mL (≈ 18 µM) | 839 µg/mL (≈ 1680 µM) | 7 µg/mL (≈ 14 µM) | – | – | – | – | – | – | O=C(COc1ccc(Cl)c(F)c1)N[C@H]1CC[C@H](c2nnc(-c3ccc(C(F)(F)F)nc3)o2)NC1 [Example 52, 2-(4-chloro-3-fluorophenoxy)-N-[(3S,6R)-6-{5-[6-(trifluoromethyl)pyridin-3-yl]-1,3,4-oxadiazol-2-yl}piperidin-3-yl]acetamide] | 1 to 1000 nM | –
14 | 1 to 500 nM | 9 µg/mL (≈ 17.7 µM) | 911 µg/mL (≈ 1790 µM) | 6 µg/mL (≈ 11.8 µM) | – | – | – | – | – | – | O=C(COc1ccc(Cl)c(F)c1)N[C@H]1CC[C@H](c2nnc(N3CC[C@@H](OC(F)(F)F)C3)o2)NC1 (single isomer, unassigned) [Example 111] | 1000 to 5000 nM | –
15 | 1 to 500 nM | 9 µg/mL (≈ 18 µM) | 918 µg/mL (≈ 1840 µM) | 6 µg/mL (≈ 12 µM) | – | – | – | – | – | – | O=C(COc1ccc(Cl)c(Cl)c1)N[C@H]1CC[C@H](c2nnc(OCCOC(F)(F)F)o2)NC1 [Example 85, 2-(3,4-dichlorophenoxy)-N-[(3S,6R)-6-{5-[2-(trifluoromethoxy)ethoxy]-1,3,4-oxadiazol-2-yl}piperidin-3-yl]acetamide] | 1000 to 5000 nM | –
16 | 500 to 2000 nM | 663 µg/mL (≈ 1350 µM) | – | 501 µg/mL (≈ 1020 µM) | – | – | – | – | – | quant.^# | O=C(COc1ccc(Cl)c(F)c1)N[C@H]1CC[C@H](c2nnc(C3CN(CC(F)(F)F)C3)o2)NC1 [Example 57, 2-(4-chloro-3-fluorophenoxy)-N-[(3S,6R)-6-{5-[1-(2,2,2-trifluoroethyl)azetidin-3-yl]-1,3,4-oxadiazol-2-yl}piperidin-3-yl]acetamide] | > 5000 nM | –
17 | 500 to 2000 nM | 814 µg/mL (≈ 1630 µM) | 616 µg/mL (≈ 1230 µM) | 606 µg/mL (≈ 1210 µM) | – | – | – | – | – | – | O=C(COc1ccc(C(F)(F)F)nc1)N[C@H]1CC[C@H](c2nnc(OCCOC(F)(F)F)o2)NC1 [Example 14, N-[(3S,6R)-6-{5-[2-(trifluoromethoxy)ethoxy]-1,3,4-oxadiazol-2-yl}piperidin-3-yl]-2-{[6-(trifluoromethyl)pyridin-3-yl]oxy}acetamide] | > 5000 nM | –
18 | 1 to 500 nM | 93 µg/mL (≈ 195 µM) | 717 µg/mL (≈ 1500 µM) | 62 µg/mL (≈ 130 µM) | – | – | – | – | – | – | CC(F)(F)CCCOc1nnc([C@H]2CC[C@H](NC(=O)COc3ccc(Cl)c(F)c3)CN2)o1 [Example 84, 2-(4-chloro-3-fluorophenoxy)-N-[(3S,6R)-6-{5-[(4,4-difluoropentyl)oxy]-1,3,4-oxadiazol-2-yl}piperidin-3-yl]acetamide] | 1000 to 5000 nM | –
